Data from patent US10800788B2, “4-(aryl)-N-(3-alkoxyfuro[2,3-b]pyrazin-2-yl)-piperazine-1-carboxamide derivative and antiproliferative effect thereof” (Dongguk University Industry-Academic Cooperation Foundation, priority 2016, dated 2020).

Tests used:
HT29 = experiment: Cell growth inhibition experiment (SRB), HT29; assay type: cell-based, human; details: Homo sapiens, HT-29, 96 h, 96 hours incubation, read-out: IC50 (μM) for cancer cell line HT29
Experimental: (§1) The 4-(aryl)-N-(3-alkoxyfuro[2,3-b]pyrazin-2-yl)-piperazine-1-carboxamide derivative compounds synthesized according to Examples 1 to 60 of the present invention were treated with various human tissue-derived cancer cell lines cultured according to Experimental Example 1, and thus the inhibitory effect of the growth of human cancer cells was confirmed. The cell growth inhibition experiment was conducted using the sulforhodamine B (SRB) technique (Skehan et al., J. National Cancer Institute, 1990, 82: 1107-1112). Specifically, each cell line was seeded in a 96-well plate at a density of 2 to 3×10^3 cells/well, cultured overnight, and then treated with the 4-(aryl)-N-(3-alkoxyfuro[2,3-b]pyrazin-2-yl)-piperazine-1-carboxamide derivative compounds of the present invention. The experiment was repeated 3 times for each compound. Cells treated with each compound were additionally incubated for 96 hours, fixed with 10% trichloroacetic acid (TCA), and then left at 4° C. for 1 hour. The resultant was washed 3 times with distilled water. Thereafter, each cell was treated with 0.4% sulforhodamine B dissolved in 1% acetic acid, stained for 30 minutes, and then washed 4 times with 1% acetic acid. The resultant was dried in the air. After shaking the resultant in Tris solution (10 mM) for 5 minutes, the absorbance was measured at 530 nm using a Benchmark Plus Microplate reader (Bio-Rad Laboratories, Hercules, Calif.).
(§2) In order to convert the OD530 value to the number of viable cells per each well, the measured OD530 value was compared to the standard OD530-vs.-cell number curve of each cell line. The percent survival was calculated using the following formula: % survival=Nlive cells(test)/Nlive cells(control)×100

[1] = system: HN31 (head and neck cancer) cell line; experiment: Cell growth inhibition experiment (SRB), HN31; assay type: cell-based, human; details: Homo sapiens, 96 h, 96 hours incubation
Experimental: (§3) The cell lines below were used in order to confirm the efficacy of the compounds synthesized in Examples 1 to 60. Human PANC-1 (pancreatic cancer) and MDA-MB-231 (breast cancer) cell lines were obtained from the American Type Culture Collection (ATCC; Manassas, Va.); and HN31 (head and neck cancer) and UMRC2 (kidney cancer) cell lines were secured from the United States National Institutes of Health (Bethesda, Md.). The MDA-MB-231, UMRC2, HN31, and PANC-1 cell lines were cultured in Dulbecco modified Eagle medium (DMEM; Invitrogen, Carlsbad, Calif.) containing FBS (10%), HEPES (10 mM), penicillin (100 U/mL), and streptomycin (100 μg/mL). All cell lines were cultured in an incubator (37° C., 5% CO2).
as §1, §2

[2] = system: UMRC2 (kidney cancer) cell line; experiment: Cell growth inhibition experiment (SRB), UMRC2; assay type: cell-based, human; details: Homo sapiens, UMRC2, 96 h, 96 hours incubation
Experimental: as §3, §1, §2

HUVEC = experiment: Cell growth inhibition experiment (SRB), HUVEC; assay type: cell-based, human; details: Homo sapiens, HUVEC, 96 h, 96 hours incubation, read-out: IC50 (μM) […]
Experimental: as §1, §2

[3] = system: PANC-1 (pancreatic cancer) cell line; experiment: Cell growth inhibition experiment (SRB), PANC-1; assay type: cell-based; details: Homo sapiens, PANC-1, 96 h, 96 hours incubation
Experimental: as §3, §1, §2

A549 = experiment: Cell growth inhibition experiment (SRB), A549; assay type: cell-based; details: Homo sapiens, A549, 96 h, 96 hours incubation, read-out: IC50 (μM) for cancer cell line A549
Experimental: as §1, §2

[4] = system: MDA-MB-231 (breast cancer) cell line; experiment: Cell growth inhibition experiment (SRB), MDA-MB-231; assay type: cell-based, human; details: Homo sapiens, MDA-MB-231, 96 h, 96 hours incubation
Experimental: as §3, §1, §2

SK-OV-3 = experiment: Cell growth inhibition experiment (SRB), SK-OV-3; assay type: cell-based, human; details: Homo sapiens, SK-OV-3, 96 h, 96 hours incubation, read-out: IC50 (μM) for cancer cell line SK-OV-3
Experimental: as §1, §2

HEK293 = experiment: Cell growth inhibition experiment (SRB), HEK293; assay type: cell-based, human; details: Homo sapiens, HEK293, 96 h, 96 hours incubation, read-out: IC50 (μM) for cancer cell line HEK293
Experimental: as §1, §2

| SMILES | IC50 (HT29) | IC50 [1] | IC50 [2] | IC50 (HUVEC) | IC50 [3] | IC50 (A549) | IC50 [4] | IC50 (SK-OV-3) | IC50 (HEK293) |
| --- | --- | --- | --- | --- | --- | --- | --- | --- | --- |
| COc1nc2oc(C)cc2nc1NC(=O)N1CCN(c2cc(C)cc(C)c2)CC1 [Example 25, 4-(3,5-Dimethylphenyl)-N-(3-methoxy-6-methylfuro[2,3-b]pyrazin-2-yl)piperazine-1-carboxamide] | 0.25 µM | 0.17 µM | < 2.5 µM | 0.13 µM | 0.08 µM | 0.22 µM | 0.15 µM | 0.63 µM | 0.36 µM |
| COc1nc2oc(C)cc2nc1NC(=O)N1CCN(c2cc(C)cc(F)c2)CC1 [Example 26, 4-(3-Fluoro-5-methylphenyl)-N-(3-methoxy-6-methylfuro[2,3-b]pyrazin-2-yl)piperazine-1-carboxamide] | < 2.5 µM | < 2.5 µM | 1.56 µM | < 2.5 µM | < 2.5 µM | < 2.5 µM | 1.32 µM | < 2.5 µM | < 2.5 µM |
| COc1nc2oc(C)cc2nc1NC(=O)N1CCN(c2cc(F)cc(F)c2)CC1 [Example 27, 4-(3,5-Difluorophenyl)-N-(3-methoxy-6-methylfuro[2,3-b]pyrazin-2-yl)piperazine-1-carboxamide] | < 2.5 µM | < 2.5 µM | 1.13 µM | < 2.5 µM | < 2.5 µM | < 2.5 µM | 0.56 µM | < 2.5 µM | < 2.5 µM |
| COc1nc2oc(C)cc2nc1NC(=O)N1CCN(c2cc(F)cc(C(F)(F)F)c2)CC1 [Example 28, 4-(3-Fluoro-5-(trifluoromethyl)phenyl)-N-(3-methoxy-6-methylfuro[2,3-b]pyrazin-2-yl)piperazine-1-carboxamide] | < 2.5 µM | < 2.5 µM | < 2.5 µM | < 2.5 µM | < 2.5 µM | < 2.5 µM | < 2.5 µM | < 2.5 µM | < 2.5 µM |
| COc1nc2oc(C)cc2nc1NC(=O)N1CCN(c2cc(C(F)(F)F)cc(C(F)(F)F)c2)CC1 [Example 29, 4-(3,5-Bis(trifluoromethyl)phenyl)-N-(3-methoxy-6-methylfuro[2,3-b]pyrazin-2-yl)piperazine-1-carboxamide] | < 2.5 µM | < 2.5 µM | < 2.5 µM | < 2.5 µM | < 2.5 µM | < 2.5 µM | < 2.5 µM | < 2.5 µM | < 2.5 µM |
| COc1nc2oc(C)cc2nc1NC(=O)N1CCN(c2cccc(OC(F)(F)F)c2)CC1 [Example 30, N-(3-Methoxy-6-methylfuro[2,3-b]pyrazin-2-yl)-4-(3-(trifluoromethoxy)phenyl)piperazine-1-carboxamide] | 1.12 µM | 1.32 µM | 0.63 µM | 1.12 µM | 0.54 µM | 0.25 µM | 0.68 µM | 1.12 µM | 0.58 µM |
| CCOc1nc2oc(C)cc2nc1NC(=O)N1CCN(c2cc(OC)cc(OC)c2)CC1 [Example 31, 4-(3,5-Dimethoxyphenyl)-N-(3-ethoxy-6-methylfuro[2,3-b]pyrazin-2-yl)piperazine-1-carboxamide] | < 2.5 µM | 1.63 µM | 0.36 µM | < 2.5 µM | 0.44 µM | 1.25 µM | 0.12 µM | < 2.5 µM | < 2.5 µM |
| CCOc1nc2oc(C)cc2nc1NC(=O)N1CCN(c2cc(C)cc(OC)c2)CC1 [Example 32, N-(3-Ethoxy-6-methylfuro[2,3-b]pyrazin-2-yl)-4-(3-methoxy-5-methylphenyl)piperazine-1-carboxamide] | < 2.5 µM | 1.63 µM | 0.52 µM | < 2.5 µM | 0.32 µM | 1.39 µM | 0.44 µM | < 2.5 µM | 1.12 µM |
